We go through 24 compounds from ChEMBL document CHEMBL1142761, “SAR studies of 6-aryl-1,3-dihydrobenzimidazol-2-ones as progesterone receptor antagonists” (Bioorg Med Chem Lett, 2005).

The target of test [1] is T1, Progesterone receptor (Homo sapiens, UniProt P06401).
T1 sequence (P06401 whole entry): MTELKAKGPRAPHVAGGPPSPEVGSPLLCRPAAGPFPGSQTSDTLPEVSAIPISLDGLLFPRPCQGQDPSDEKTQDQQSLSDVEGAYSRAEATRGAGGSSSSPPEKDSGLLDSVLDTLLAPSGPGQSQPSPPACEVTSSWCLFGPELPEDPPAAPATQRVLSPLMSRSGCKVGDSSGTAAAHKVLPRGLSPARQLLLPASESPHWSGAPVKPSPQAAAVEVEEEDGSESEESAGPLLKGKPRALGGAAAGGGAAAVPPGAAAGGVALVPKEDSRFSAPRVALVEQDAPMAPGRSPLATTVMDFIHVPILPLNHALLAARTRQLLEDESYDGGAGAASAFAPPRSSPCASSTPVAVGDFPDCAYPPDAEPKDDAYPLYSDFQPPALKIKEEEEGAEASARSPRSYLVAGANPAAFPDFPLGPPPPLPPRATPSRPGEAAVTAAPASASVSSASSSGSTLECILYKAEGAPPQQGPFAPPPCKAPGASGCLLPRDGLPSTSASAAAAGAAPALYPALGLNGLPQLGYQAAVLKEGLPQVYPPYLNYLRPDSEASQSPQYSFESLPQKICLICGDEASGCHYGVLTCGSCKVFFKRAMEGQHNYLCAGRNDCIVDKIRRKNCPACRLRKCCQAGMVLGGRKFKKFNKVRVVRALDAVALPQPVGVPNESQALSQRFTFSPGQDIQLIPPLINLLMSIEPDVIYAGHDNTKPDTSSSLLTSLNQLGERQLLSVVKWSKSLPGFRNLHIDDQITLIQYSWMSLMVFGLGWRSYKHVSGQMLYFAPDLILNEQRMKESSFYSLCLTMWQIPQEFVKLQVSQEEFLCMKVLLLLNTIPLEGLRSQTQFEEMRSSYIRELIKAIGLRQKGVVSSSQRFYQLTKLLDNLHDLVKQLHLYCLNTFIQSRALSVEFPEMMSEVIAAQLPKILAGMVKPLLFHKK
In words: Progesterone receptor antagonist activity in human T47D breast carcinoma cell alkaline phosphatase assay.

Test [2] addresses T1, Progesterone receptor. In words: Progesterone receptor agonist activity in human T47D breast carcinoma cell alkaline phosphatase assay. The format is functional, cell-based.

The term IC50 denotes the concentration at which inhibition is half-maximal. A lower IC50 goes with greater potency in that assay. On to `N#Cc1cc(F)cc(-c2ccc3[nH]c(=O)n(C4CCCC4)c3c2)c1`, for which the IC50 in test [1] stood at 5.7 nM.

Turning to `CC(C)n1c(O)nc2ccc(-c3ccc(F)c(C#N)c3)cc21`, the half-inhibitory concentration (IC50) in test [1] was determined as 60.3 nM. This IC50 lies about 11-fold higher than the previous one.

For `O=c1[nH]c2ccc(-c3ccc(F)c(F)c3)cc2n1C1CCC1`, inhibition in test [1] was half-maximal at 175 nM (IC50).

In turn, `CC(C)n1c(O)nc2ccc(-c3ccc(C#N)n3C)cc21` showed an IC50 in test [1] of 4.7 nM.

`CCC(CC)n1c(=O)[nH]c2ccc(-c3cc(F)cc(C#N)c3)cc21` registered an IC50 in test [2] of 29 nM.

Take `CCC(CC)n1c(=O)[nH]c2ccc(-c3ccc(F)c(Cl)c3)cc21`: the IC50 in test [2] amounted to 426 nM.

On to `CC(C)n1c(=O)[nH]c2ccc(-c3ccc(F)c(Cl)c3)cc21`, for which the 50% inhibitory concentration (IC50) in test [1] amounted to 106 nM.

Consider `Cn1c(C#N)ccc1-c1ccc2[nH]c(=O)n(C3CCCC3)c2c1`, for which half-maximal inhibition in test [1] (IC50) was put at 5.6 nM. Against the preceding compound, the IC50 is about 19-fold lower.

Consider `CC(C)n1c(O)nc2ccc(-c3ccccc3F)cc21`, for which, in test [1], the midpoint of inhibition, the IC50, lay at 412 nM.

With `O=c1[nH]c2ccc(-c3ccc(F)c(F)c3)cc2n1C1CCCC1`, it took 96.8 nM to reach half-maximal inhibition in test [1] (IC50).

Consider `CC(C)n1c(O)nc2ccc(-c3ccc(F)cc3)cc21`, for which the IC50 in test [1] amounted to 295 nM. This IC50 is about 3-fold higher than that of the compound before.

Compound `N#Cc1cc(F)cc(-c2ccc3[nH]c(=O)n(-c4cccc(Cl)c4)c3c2)c1` came in with an IC50 in test [1] of 3000 nM. This IC50 lies about 10-fold higher than the previous one.

Take `CC(C)n1c(=O)[nH]c2ccc(-c3cccc(F)c3)cc21`: in test [1], the IC50 is 77.9 nM.

Turning to `N#Cc1cc(F)cc(-c2ccc3[nH]c(=O)n(C4CCCCC4)c3c2)c1`, the IC50 in test [1] is 83.6 nM.

In turn, `CC(C)n1c(O)nc2ccc(-c3ccc(F)c(F)c3)cc21` gave an IC50 in test [1] of 207 nM.

For the compound `N#Cc1cc(F)cc(-c2ccc3[nH]c(=O)n(C4CCC4)c3c2)c1`, in test [1], the IC50 is 3.3 nM.

`CC(C)n1c(=O)[nH]c2ccc(-c3cc(Cl)cc(Cl)c3)cc21` came in with a half-maximal inhibitory concentration (IC50) in test [1] of 100 nM.

On to `CCC(CC)n1c(=O)[nH]c2ccc(-c3ccc(C#N)n3C)cc21`, for which the IC50 in test [2] was found to be 11.7 nM.

Compound `Cc1cc(C#N)sc1-c1ccc2nc(O)n(C(C)C)c2c1` yielded an IC50 in test [1] of 24.8 nM.

With `Oc1nc2ccc(-c3ccc(F)c(Cl)c3)cc2n1C1CCCC1`, in test [1], the concentration for half-maximal inhibition (IC50) stood at 135 nM.

For the compound `CC(C)n1c(O)nc2ccc(-c3cc(F)cc(C#N)c3)cc21`, in test [1], the IC50 came to 29.6 nM.

In turn, `N#Cc1cc(F)cc(-c2ccc3[nH]c(=O)n(-c4ccccc4)c3c2)c1` gave a half-inhibitory concentration (IC50) in test [1] of 137 nM.

`Cn1c(C#N)ccc1-c1ccc2[nH]c(=O)n(C3CCC3)c2c1` had an IC50 in test [1] of 10.9 nM.

As to `Oc1nc2ccc(-c3ccc(F)c(Cl)c3)cc2n1C1CCC1`, the IC50 in test [1] was 106 nM.
